In the Kinase Knowledgebase extract (Sharma et al. 2016):

Target: MAPK14 (human) (UniProt Q16539)
Test: Inhibition of MAPK14 Kinase Activity

Sequence of MAPK14 (human) (Q16539 whole entry, looked up): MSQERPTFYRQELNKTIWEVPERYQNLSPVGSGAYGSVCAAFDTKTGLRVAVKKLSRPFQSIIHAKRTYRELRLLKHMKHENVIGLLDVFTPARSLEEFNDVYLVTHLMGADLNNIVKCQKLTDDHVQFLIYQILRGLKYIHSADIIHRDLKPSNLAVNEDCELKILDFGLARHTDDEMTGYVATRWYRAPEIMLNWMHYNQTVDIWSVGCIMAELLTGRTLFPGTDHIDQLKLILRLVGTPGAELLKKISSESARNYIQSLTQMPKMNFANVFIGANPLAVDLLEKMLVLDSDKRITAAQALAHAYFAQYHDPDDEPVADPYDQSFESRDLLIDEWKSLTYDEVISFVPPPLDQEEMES

IC50 [nM] | Structure (SMILES)
< 2000 | CN1CC(Nc2sc3c(ccc(=O)n3CC3CC3)c2C(=O)c2ccccc2)C1
< 2000 | CCN1CC(Nc2sc3c(ccc(=O)n3-c3ccccc3)c2C(=O)c2ccc(F)c(C)c2)C1
< 2000 | O=C(Nc1sc2c(ccc(=O)n2-c2ccccc2)c1C(=O)c1ccccc1)N[C@H]1CCNC1
< 2000 | CN(C)c1sc2c(ccc(=O)n2-c2ccccc2)c1C(=O)c1ccccc1
< 2000 | CC(=O)Nc1sc2c(ccc(=O)n2-c2ccccc2)c1C(=O)c1ccc(C)c(C)c1
< 2000 | CN1CCC(Nc2sc3c(ccc(=O)n3-c3ccccc3)c2C(=O)c2ccccc2)CC1
< 2000 | Cc1cc(C(=O)c2c(NC(=O)N3CC[C@H](N(C)C)C3)sc3c2ccc(=O)n3-c2ccccc2)ccc1F
< 2000 | Cc1cc(C(=O)c2c(N)sc3c2ccc(=O)n3-c2c(F)cccc2F)ccc1F
< 2000 | O=C(c1ccccc1)c1c(NCCN2CCCCC2)sc2c1ccc(=O)n2-c1ccccc1
< 2000 | Cc1cccc(C(=O)c2c(NC3CCNCC3)sc3c2ccc(=O)n3-c2ccccc2)c1
< 2000 | NC(=O)c1sc2c(ccc(=O)n2-c2ccccc2)c1C(=O)c1ccccc1
< 2000 | O=C(c1ccccc1)c1c(NC(=O)[C@H]2CCCN2)sc2c1ccc(=O)n2-c1ccccc1
< 2000 | CN1CC(Nc2sc3c(ccc(=O)n3-c3c(F)cccc3F)c2C(=O)c2ccccc2)C1
< 2000 | CC(=O)Nc1sc2c(ccc(=O)n2-c2ccccc2Cl)c1C(=O)c1cccc(C)c1
< 2000 | CN(C)C1CN(c2sc3c(ccc(=O)n3-c3ccccc3)c2C(=O)c2ccccc2)C1
< 2000 | CC(=O)Nc1sc2c(ccc(=O)n2-c2ccccc2)c1C(=O)c1ccccc1
< 2000 | O=C(NCCO)Nc1sc2c(ccc(=O)n2-c2ccccc2)c1C(=O)c1ccccc1
< 2000 | CCN1CCC(Nc2sc3c(ccc(=O)n3-c3ccccc3)c2C(=O)c2ccc(F)c(C)c2)CC1
< 2000 | O=C(c1ccccc1)c1csc2c1ccc(=O)n2-c1ccccc1
< 2000 | CC(=O)Nc1sc2c(ccc(=O)n2-c2ccccc2)c1C(=O)c1ccccc1Cl
< 2000 | N[C@H]1CC[C@H](Nc2sc3c(ccc(=O)n3-c3ccccc3)c2C(=O)c2ccccc2)CC1
< 2000 | Cc1ccccc1C(=O)c1c(N)sc2c1ccc(=O)n2-c1ccccc1
< 2000 | CC(=O)Nc1sc2c(ccc(=O)n2-c2ccccc2)c1C(=O)c1cccs1
< 2000 | CN1CCC(Nc2sc3c(ccc(=O)n3-c3ccc(F)cc3)c2C(=O)c2ccccc2)CC1
< 2000 | O=C(c1ccccc1)c1c(NCCN2CCCC2)sc2c1ccc(=O)n2-c1ccccc1

IC50 [nM] | Structure (SMILES)
< 2000 | O=C(c1ccccc1)c1c(N2CC[C@@H](O)C2)sc2c1ccc(=O)n2-c1ccccc1
< 2000 | Nc1sc2c(ccc(=O)n2-c2ccccc2)c1C(=O)c1ccc(OC(F)(F)F)cc1
< 2000 | Nc1sc2c(ccc(=O)n2-c2ccccc2)c1C(=O)c1cccs1
< 2000 | Cc1cc(C(=O)c2c(NC(=O)N3CC[C@@H](N(C)C)C3)sc3c2ccc(=O)n3-c2ccccc2)ccc1F
< 2000 | NC(=O)c1sc2c(ccc(=O)n2-c2ccccc2)c1C(=O)c1ccc(F)cc1F
< 2000 | Cc1cc(C(=O)c2c(NC(=O)NC(C)(C)CO)sc3c2ccc(=O)n3-c2ccccc2)ccc1F
< 2000 | O=C(c1cccc(C(F)(F)F)c1)c1c(NC(=O)C2CCNCC2)sc2c1ccc(=O)n2-c1ccccc1
< 2000 | Cc1cccc(C(=O)c2c(C(=O)O)sc3c2ccc(=O)n3-c2ccccc2)c1
< 2000 | Cc1ccc(-n2c(=O)ccc3c(C(=O)c4ccc(F)c(C)c4)c(NC4CN(C)C4)sc32)cc1
< 2000 | CCOC(=O)c1sc2c(ccc(=O)n2-c2ccccc2)c1C(=O)c1cccc(Cl)c1
< 2000 | Nc1sc2c(ccc(=O)n2-c2ccccc2)c1C(=O)c1ccccc1OC(F)(F)F
< 2000 | CC(=O)Nc1sc2c(ccc(=O)n2-c2ccccc2)c1C(=O)c1cccc(C(F)(F)F)c1
< 2000 | CCN1CCC(C(=O)Nc2sc3c(ccc(=O)n3-c3ccccc3)c2C(=O)c2ccccc2)CC1
< 2000 | O=C(c1ccccc1)c1c(C(=O)N2CCC2)sc2c1ccc(=O)n2-c1ccccc1
< 2000 | Cc1cccc(C(=O)c2c(NC(=O)N(C)C)sc3c2ccc(=O)n3-c2ccccc2)c1
< 2000 | Cc1ccc(-n2c(=O)ccc3c(C(=O)c4ccc(F)c(C)c4)c(NC4CNC4)sc32)cc1
< 2000 | Nc1sc2c(ccc(=O)n2-c2ccccc2)c1C(=O)c1ccc(F)cc1
< 2000 | Nc1sc2c(ccc(=O)n2-c2ccccc2)c1C(=O)c1cccc(OC(F)(F)F)c1
< 2000 | CC(=O)Nc1sc2c(ccc(=O)n2CC2CC2)c1C(=O)c1ccc(F)c(C)c1
< 2000 | Nc1sc2c(ccc(=O)n2-c2ccccc2)c1C(=O)c1ccc(C(F)(F)F)cc1
< 2000 | NC1CCN(c2sc3c(ccc(=O)n3-c3ccccc3)c2C(=O)c2ccccc2)CC1
< 2000 | O=C(c1ccccc1)c1c(N[C@@H]2CCNC2)sc2c1ccc(=O)n2-c1ccccc1
< 2000 | CC(C)(C)OC(=O)Nc1sc2c(ccc(=O)n2-c2ccccc2)c1C(=O)c1ccccc1
< 2000 | Nc1sc2c(ccc(=O)n2-c2ccccc2)c1C(=O)c1ccc(F)cc1F
< 2000 | C=CCNC(=O)Nc1sc2c(ccc(=O)n2-c2ccccc2)c1C(=O)c1cccc(C)c1

IC50 [nM] | Structure (SMILES)
< 2000 | Cc1cccc(C(=O)c2c(NC(=O)N3CCC[C@@H]3CO)sc3c2ccc(=O)n3-c2ccccc2)c1
< 2000 | O=C(c1ccccc1)c1c(NC2CCCNC2)sc2c1ccc(=O)n2-c1ccccc1 (centres undefined)
< 2000 | COc1cccc(C(=O)c2c(NC3CCN(C)CC3)sc3c2ccc(=O)n3-c2ccccc2)c1
< 2000 | Cc1cc(C(=O)c2c(NC(=O)C3CCN(C)CC3)sc3c2ccc(=O)n3-c2ccccc2F)ccc1F
< 2000 | Cc1cccc(C(=O)c2c(C#N)sc3c2ccc(=O)n3-c2ccccc2)c1
< 2000 | CC(=O)Nc1sc2c(ccc(=O)n2-c2ccccc2)c1C(=O)c1ccccc1C#N
< 2000 | COc1ccc(C(=O)c2c(N)sc3c2ccc(=O)n3-c2ccccc2)cc1
< 2000 | CC(=O)Nc1sc2c(ccc(=O)n2-c2ccccc2F)c1C(=O)c1ccc(F)c(C)c1
< 2000 | CC(=O)Nc1sc2c(ccc(=O)n2-c2ccccc2)c1C(=O)c1ccc(C)cc1
< 2000 | CN(C)CC(C)(C)CNc1sc2c(ccc(=O)n2-c2ccccc2)c1C(=O)c1ccccc1
< 2000 | Nc1sc2c(ccc(=O)n2-c2ccccc2)c1C(=O)c1ccccc1Cl
< 2000 | CC(C)(CO)NC(=O)Nc1sc2c(ccc(=O)n2CC2CC2)c1C(=O)c1ccccc1
< 2000 | O=C(c1ccccc1)c1c(N2CCOCC2)sc2c1ccc(=O)n2-c1ccccc1
< 2000 | Cc1cc(C(=O)c2c(NC3CN(C)C3)sc3c2ccc(=O)n3CC2CC2)ccc1F
< 2000 | Cc1cc(C(=O)c2c(N)sc3c2ccc(=O)n3-c2ccccc2)ccc1F
< 2000 | Cc1ccc(C(=O)c2c(N)sc3c2ccc(=O)n3-c2ccccc2)cc1
< 2000 | N#Cc1ccc(C(=O)c2c(N)sc3c2ccc(=O)n3-c2ccccc2)cc1
< 2000 | CC(C)(CO)NC(=O)c1sc2c(ccc(=O)n2-c2ccccc2)c1C(=O)c1ccccc1
< 2000 | CC(=O)Nc1sc2c(ccc(=O)n2-c2ccccc2F)c1C(=O)c1cccc(C)c1
< 2000 | CC(=O)Nc1sc2c(ccc(=O)n2-c2ccccc2)c1C(=O)c1ccccc1C
< 2000 | Cc1cccc(C(=O)c2c(N)sc3c2ccc(=O)n3-c2ccccc2Cl)c1
< 2000 | CC(=O)Nc1sc2c(ccc(=O)n2-c2ccccc2)c1C(=O)c1ccc(F)c(Cl)c1
< 2000 | CC(C)(O)CNC(=O)Nc1sc2c(ccc(=O)n2-c2ccccc2Cl)c1C(=O)c1ccccc1
< 2000 | CC(C)N1CCC(Nc2sc3c(ccc(=O)n3-c3ccccc3)c2C(=O)c2ccccc2)C1 (centres undefined)
< 2000 | Cc1cccc(C(=O)c2c(NC3CNC3)sc3c2ccc(=O)n3-c2ccccc2)c1

IC50 [nM] | Structure (SMILES)
< 2000 | Nc1sc2c(ccc(=O)n2-c2ccccc2)c1C(=O)c1ccccc1OC(F)F
< 2000 | CC(=O)Nc1sc2c(ccc(=O)n2-c2ccccc2)c1C(=O)c1ccc(F)cc1
< 2000 | NC(=O)CCNc1sc2c(ccc(=O)n2-c2ccccc2)c1C(=O)c1ccccc1
< 2000 | N[C@H]1CCN(C(=O)Nc2sc3c(ccc(=O)n3-c3ccccc3)c2C(=O)c2ccccc2)C1
< 2000 | CCN1CCC(Nc2sc3c(ccc(=O)n3-c3ccccc3)c2C(=O)c2cccc(C)c2)CC1
< 2000 | Nc1sc2c(ccc(=O)n2-c2ccccc2)c1C(=O)c1ccccc1
< 2000 | CN1CCC(C(=O)Nc2sc3c(ccc(=O)n3-c3ccccc3Cl)c2C(=O)c2ccccc2)CC1
< 2000 | Nc1sc2c(ccc(=O)n2-c2ccccc2)c1C(=O)c1cccc(Cl)c1
< 2000 | NC(=O)CNc1sc2c(ccc(=O)n2-c2ccccc2)c1C(=O)c1ccccc1
< 2000 | Cc1cccc(C(=O)c2c(N)sc3c2ccc(=O)n3-c2ccccc2F)c1
< 2000 | Cc1cc(C(=O)c2c([N+](=O)[O-])sc3c2ccc(=O)n3-c2ccccc2Cl)ccc1F
< 2000 | Cc1cc(C(=O)c2c(NC(=O)NC(C)(C)CO)sc3c2ccc(=O)n3CC2CC2)ccc1F
< 2000 | Cc1cccc(C(=O)c2csc3c2ccc(=O)n3-c2ccccc2)c1
< 2000 | O=C(c1ccccc1)c1c([N+](=O)[O-])sc2c1ccc(=O)n2-c1ccccc1
< 2000 | Cc1cc(C(=O)c2c(N[C@H]3CCNC3)sc3c2ccc(=O)n3-c2ccccc2)ccc1F
< 2000 | Cc1cccc(C(=O)c2c(N[C@H]3CCN(C)C3)sc3c2ccc(=O)n3-c2ccccc2)c1
< 2000 | O=C(c1ccccc1)c1c(NC2CNC2)sc2c1ccc(=O)n2-c1c(F)cccc1F
< 2000 | Nc1sc2c(ccc(=O)n2-c2ccccc2)c1C(=O)c1ccccn1
< 2000 | O=C(O)c1sc2c(ccc(=O)n2-c2ccccc2)c1C(=O)c1ccccc1
< 2000 | Cc1cc(C(=O)c2c(NC3CCNCC3)sc3c2ccc(=O)n3-c2ccccc2)ccc1F
< 2000 | COc1cccc(C(=O)c2c(NC(C)=O)sc3c2ccc(=O)n3-c2ccccc2)c1
< 2000 | Nc1sc2c(ccc(=O)n2-c2ccccc2)c1C(=O)c1nccs1
< 2000 | O=C(c1ccccc1)c1c(NC(=O)N2CC[C@@H](O)C2)sc2c1ccc(=O)n2-c1ccccc1
< 2000 | COc1ccccc1C(=O)c1c(N)sc2c1ccc(=O)n2-c1ccccc1
